The text below walks through data of patent US20250042889A1, “3CLPRO PROTEASE INHIBITOR” (SHANGHAI QILU PHARMACEUTICAL RESEARCH AND DEVELOPMENT …, priority 2021, published 2025).

Where two headings read alike, the source gives them in different places.

This experiment deals with SARS-COV-2 3CLpro/Mpro protease (Severe acute respiratory syndrome coronavirus 2 (2019-nCoV) (SARS-CoV-2), UniProt P0DTD1). The experiment can be described thus: Inhibitory effect on SARS-COV-2 3CLpro/Mpro protease by fluorescence resonance energy transfer. Particulars: activity intervals A-D. Type of experiment: biochemical.
[1] abbreviates: read-out: IC50 (nM), Inhibition on SARS-CoV-2 3CLpro/Mpro protease.
The mark [2] stands for this setting: IC50 (nM), Inhibition on SARS-CoV-2 3CLpro/Mpro protease.

Regarding `[2H]C1([2H])CC[C@@H](Nc2c(C(=O)N3C[C@@H](C)O[C@@H](C)C3)cc(Br)cc2[N+](=O)[O-])C([2H])([2H])N1C(=O)c1cncc(NC)c1` [Example 354], the IC50 under setting [1] lay within 10 to 50 nM. Turning to `CNc1cncc(C(=O)N2CCC[C@@H](Nc3c(C(=O)N4CCOC[C@H]4C)cc(Br)cc3[N+](=O)[O-])C2)c1` [Example 355], the IC50 under setting [1] is 10 to 50 nM. Take `CNc1cncc(C(=O)N2CCC[C@@H](Nc3c(C(=O)N4CCOC[C@@H]4C)cc(Br)cc3[N+](=O)[O-])C2)c1` [Example 356]: the IC50 under setting [1] fell in the range of 10 to 50 nM.

`CNc1cncc(C(=O)N2CCC[C@@H](Nc3c(C(=O)N4C5COCC4C5)cc(Br)cc3[N+](=O)[O-])C2)c1` [Example 357, ((3R)-3-((2-(3-oxa-6-azabicyclo[3.1.1]heptan-6-carbonyl)-4-bromo-6-nitrophenyl)amino)piperidin-1-yl)(5-(methylamino)pyridin-3-yl)methanone] had an IC50 under setting [2] of 10 to 50 nM. On to `CNc1cncc(C(=O)N2CCC[C@@H](Nc3c(C(=O)N4C5CCC4COC5)cc(Br)cc3[N+](=O)[O-])C2)c1` [Example 358], for which the IC50 under setting [2] fell in the range of 10 to 50 nM. As for `CNc1cncc(C(=O)N2CCC[C@@H](Nc3c(C(=O)N4[C@H](C)COC[C@@H]4C)cc(Br)cc3[N+](=O)[O-])C2)c1` [Example 359], under setting [1], the IC50 is 10 to 50 nM. The same measure, in the same setting: then `CNc1cncc(C(=O)N2C[C@H](Nc3c(C(=O)N4CC5CCC(C4)O5)cc(Br)cc3[N+](=O)[O-])[C@@H](OC)C2)c1` [Example 360], with 10 to 50 nM; and `COCCN1CCN(C(=O)c2cc(Br)cc([N+](=O)[O-])c2N[C@@H]2CCCN(C(=O)[C@H]3CNCC(F)(F)C3)C2)CC1` [Example 361], with 10 to 50 nM. On to `CNc1cncc(C(=O)N2C[C@H](Nc3c(C(=O)N4C[C@@H](C)O[C@@H](C)C4)cc(Br)cc3[N+](=O)[O-])C[C@H]2C(=O)N2CCNC(=O)C2)c1` [Example 364], for which, under setting [1], the IC50 was in the range of 50 to 100 nM. For `CNc1cncc(C(=O)N2C[C@H](Nc3c(C(=O)N4C[C@@H](C)O[C@@H](C)C4)cc(Br)cc3[N+](=O)[O-])C[C@H]2C(=O)N2CCc3nn(C)cc3C2)c1` [Example 365], the IC50 under setting [1] was in the range of 50 to 100 nM. For `CNC(=O)[C@@H]1C[C@@H](Nc2c(C(=O)N3C[C@@H](C)O[C@@H](C)C3)cc(Br)cc2[N+](=O)[O-])CN1C(=O)c1cncc(NC)c1` [Example 366], the IC50 under setting [1] lay within 10 to 50 nM. For `CNc1cncc(C(=O)N2C[C@H](Nc3c(C(=O)N4CCOC[C@H]4C)cc(Br)cc3[N+](=O)[O-])[C@@H](OC)C2)c1` [Example 367], under setting [1], the IC50 was in the range of 10 to 50 nM. As to `CNc1cncc(C(=O)N2CCC[C@@H](Nc3c(C(=O)N4CC(F)(F)OC(F)(F)C4)cc(Br)cc3[N+](=O)[O-])C2)c1` [Example 368, (R)-(5-bromo-2-((1-(5-(methylamino)nicotinoyl)piperidin-3-yl)amino)-3-nitrophenyl)(2,2,6,6-tetrafluoromorpholinyl)methanone], the IC50 under setting [1] is 10 to 50 nM. For the molecule `CNc1cncc(C(=O)N2C[C@H](Nc3c(C(=O)N4C[C@@H](C)O[C@@H](C)C4)cc(Br)cc3[N+](=O)[O-])C[C@H]2C(=O)Nc2cnoc2)c1` [Example 369, (2S,4R)-4-((4-bromo-2-((2R,6S)-2,6-dimethylmorpholin-4-carbonyl)-6-nitrophenyl)amino)-N-(isoxazol-4-yl)-1-(5-(methylamino)nicotinoyl) pyrrolidin-2-formamide], the IC50 under setting [1] is 50 to 100 nM.

With `CNc1cncc(C(=O)N2C[C@H](Nc3c(C(=O)N4C[C@@H](C)O[C@@H](C)C4)cc(Br)cc3[N+](=O)[O-])C[C@H]2C(=O)Nc2cccc(Br)c2)c1` [Example 370], the IC50 under setting [1] fell in the range of 50 to 100 nM. Take `CNc1cncc(C(=O)N2C[C@H](Nc3c(C(=O)N4C5CCCC4COC5)cc(Br)cc3[N+](=O)[O-])[C@@H](OC)C2)c1` [Example 371]: the IC50 under setting [2] lay in the range of 10 to 50 nM.

On to `CNc1cncc(C(=O)N2C[C@H](Nc3c(C(=O)N4CCC(F)(F)CC4)cc(Br)cc3[N+](=O)[O-])[C@@H](OC)C2)c1` [Example 372], for which the IC50 under setting [1] was in the range of 10 to 50 nM. On to `C#C[C@@H]1C[C@@H](Nc2c(C(=O)N3C[C@@H](C)O[C@@H](C)C3)cc(Br)cc2[N+](=O)[O-])CN1C(=O)c1cncc(NC)c1` [Example 373], for which the IC50 under setting [1] lay within 50 to 100 nM. On to `CNc1cncc(C(=O)N2C[C@H](Nc3c(C(=O)N4CCCC(F)(F)C4)cc(Br)cc3[N+](=O)[O-])[C@@H](OC)C2)c1` [Example 374], for which, under setting [1], the IC50 is 10 to 50 nM. In the case of `CNc1cncc(C(=O)N2C[C@H](Nc3c(C(=O)N4CCOC(F)(F)C4)cc(Br)cc3[N+](=O)[O-])[C@@H](OC)C2)c1` [Example 375], the IC50 under setting [1] lay within 10 to 50 nM.

With `CNc1cncc(C(=O)N2C[C@H](Nc3c(C(=O)N4C[C@@H](C)O[C@@H](C)C4)cc(Br)cc3[N+](=O)[O-])C[C@H]2C(=O)N2CCOCC2)c1` [Example 376], the IC50 under setting [1] was in the range of 50 to 100 nM.

Take `CNc1cncc(C(=O)N2C[C@H](Nc3c(C(=O)N4C[C@@H](C)O[C@@H](C)C4)cc(Br)cc3[N+](=O)[O-])C[C@H]2C(=O)N(C)C)c1` [Example 377]: under setting [1], the IC50 was 50 to 100 nM. Turning to `CNc1cncc(C(=O)N2C[C@H](Nc3c(C(=O)N4C[C@@H](C)O[C@@H](C)C4)cc(Br)cc3[N+](=O)[O-])C[C@H]2C(=O)NC2CNC(=O)C2)c1` (stereo partly shown) [Example 378], the IC50 under setting [1] lay within 10 to 50 nM. For the molecule `CNc1cncc(C(=O)N2C[C@H](Nc3c(C(=O)N4C[C@@H](C)O[C@@H](C)C4)cc(Br)cc3[N+](=O)[O-])C[C@H]2C(N)=O)c1` [Example 379, (2S,4R)-4-((4-bromo-2-((2R,6S)-2,6-dimethylmorpholin-4-carbonyl)-6-nitrophenyl)amino)-1-(5-(methylamino)nicotinoyl) pyrrolidin-2-formamide], under setting [1], the IC50 is 10 to 50 nM. For the molecule `CNc1cncc(C(=O)N2C[C@H](Nc3c(C(=O)N4C[C@@H](C)O[C@@H](C)C4)cc(Br)cc3[N+](=O)[O-])CC2C(=O)NCC(F)(F)F)c1` (stereo partly shown) [Example 380], the IC50 under setting [1] lay in the range of 10 to 50 nM. Still for that read-out and setting: then `CNc1cncc(C(=O)N2C[C@H](Nc3c(C(=O)N4C[C@@H](C)O[C@@H](C)C4)cc(Br)cc3[N+](=O)[O-])C[C@H]2C(=O)N2CC(F)(F)C2)c1` [Example 382], with 50 to 100 nM; and `CNc1cncc(C(=O)N2C[C@H](Nc3c(C(=O)N4C[C@@H](C)O[C@@H](C)C4)cc(Br)cc3[N+](=O)[O-])C[C@H]2C(=O)Nc2nn(C)cc2Br)c1` [Example 383, (2S,4R)—N-(4-bromo-1-methyl-1H-pyrazol-3-yl)-4-((4-bromo-2-((2R,6S)-2,6-dimethylmorpholin-4-carbonyl)-6-nitrophenyl)amino)-1-(5-(methylamino)nicotinoyl) pyrrolidin-2-formamide], with 10 to 50 nM; and `CNc1cncc(C(=O)N2C[C@H](Nc3c(C(=O)N4C[C@@H](C)O[C@@H](C)C4)cc(Br)cc3[N+](=O)[O-])C[C@H]2C(=O)Nc2ccn(C)n2)c1` [Example 385], with 10 to 50 nM. Turning to `CNc1cncc(C(=O)N2C[C@H](Nc3c(C(=O)N4C[C@@H](C)O[C@@H](C)C4)cc(Br)cc3[N+](=O)[O-])C[C@H]2C(=O)N2CC(O)C2)c1` [Example 386], the IC50 under setting [1] lay in the range of 50 to 100 nM.

As for `CNc1cncc(C(=O)N2C[C@H](Nc3c(C(=O)N4C[C@@H](C)O[C@@H](C)C4)cc(Br)cc3[N+](=O)[O-])C[C@H]2C(=O)Nc2ccccc2)c1` [Example 387], under setting [1], the IC50 was 10 to 50 nM. `CNc1cncc(C(=O)N2C[C@H](Nc3c(C(=O)N4C[C@@H](C)O[C@@H](C)C4)cc(Br)cc3[N+](=O)[O-])C[C@H]2C(=O)NC2CC2)c1` [Example 388]: the IC50 under setting [1] was 50 to 100 nM.
